The results in this text go back to US20250228835A1, “PYRIDINYLOXYPYRIDINES AND RELATED COMPOUNDS AND THEIR USE IN TREATING MEDICAL CONDITIONS” (Rectify Pharmaceuticals, Inc., priority 2024, published 2025).

The structures appear in SMILES notation.

The experiment addresses T1, ABCC6 WT (Homo sapiens, UniProt O95255).
T1 construct: expressed in transfected cells; host or cells: HEK-293 (transient, Lipofectamine 2000)
Put plainly: ABCC6 WT assay: HiBit protein expression. It counts as cell-based. The settings on record: HEK-293 cells transiently expressing HiBit-tagged ABCC6 WT; 24 h treatment; top concentration 20 μM; read-out: ABCC6 WT EC50, Emax. The gist of the method:
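HEK-293 cells transiently transfected with HiBit-tagged human ABCC6 WT cDNA, seeded 24 h post-transfection, treated 24 h at 37° C with ten 2-fold doses (top 20 μM final, 0.15% DMSO). HiBit lytic luminescence reports protein expression; Emax and EC50 derived.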
In general terms: HiBiT is a short tag that completes a luciferase, so light tracks the accessible tagged protein.

T1 sequence (O95255 whole entry): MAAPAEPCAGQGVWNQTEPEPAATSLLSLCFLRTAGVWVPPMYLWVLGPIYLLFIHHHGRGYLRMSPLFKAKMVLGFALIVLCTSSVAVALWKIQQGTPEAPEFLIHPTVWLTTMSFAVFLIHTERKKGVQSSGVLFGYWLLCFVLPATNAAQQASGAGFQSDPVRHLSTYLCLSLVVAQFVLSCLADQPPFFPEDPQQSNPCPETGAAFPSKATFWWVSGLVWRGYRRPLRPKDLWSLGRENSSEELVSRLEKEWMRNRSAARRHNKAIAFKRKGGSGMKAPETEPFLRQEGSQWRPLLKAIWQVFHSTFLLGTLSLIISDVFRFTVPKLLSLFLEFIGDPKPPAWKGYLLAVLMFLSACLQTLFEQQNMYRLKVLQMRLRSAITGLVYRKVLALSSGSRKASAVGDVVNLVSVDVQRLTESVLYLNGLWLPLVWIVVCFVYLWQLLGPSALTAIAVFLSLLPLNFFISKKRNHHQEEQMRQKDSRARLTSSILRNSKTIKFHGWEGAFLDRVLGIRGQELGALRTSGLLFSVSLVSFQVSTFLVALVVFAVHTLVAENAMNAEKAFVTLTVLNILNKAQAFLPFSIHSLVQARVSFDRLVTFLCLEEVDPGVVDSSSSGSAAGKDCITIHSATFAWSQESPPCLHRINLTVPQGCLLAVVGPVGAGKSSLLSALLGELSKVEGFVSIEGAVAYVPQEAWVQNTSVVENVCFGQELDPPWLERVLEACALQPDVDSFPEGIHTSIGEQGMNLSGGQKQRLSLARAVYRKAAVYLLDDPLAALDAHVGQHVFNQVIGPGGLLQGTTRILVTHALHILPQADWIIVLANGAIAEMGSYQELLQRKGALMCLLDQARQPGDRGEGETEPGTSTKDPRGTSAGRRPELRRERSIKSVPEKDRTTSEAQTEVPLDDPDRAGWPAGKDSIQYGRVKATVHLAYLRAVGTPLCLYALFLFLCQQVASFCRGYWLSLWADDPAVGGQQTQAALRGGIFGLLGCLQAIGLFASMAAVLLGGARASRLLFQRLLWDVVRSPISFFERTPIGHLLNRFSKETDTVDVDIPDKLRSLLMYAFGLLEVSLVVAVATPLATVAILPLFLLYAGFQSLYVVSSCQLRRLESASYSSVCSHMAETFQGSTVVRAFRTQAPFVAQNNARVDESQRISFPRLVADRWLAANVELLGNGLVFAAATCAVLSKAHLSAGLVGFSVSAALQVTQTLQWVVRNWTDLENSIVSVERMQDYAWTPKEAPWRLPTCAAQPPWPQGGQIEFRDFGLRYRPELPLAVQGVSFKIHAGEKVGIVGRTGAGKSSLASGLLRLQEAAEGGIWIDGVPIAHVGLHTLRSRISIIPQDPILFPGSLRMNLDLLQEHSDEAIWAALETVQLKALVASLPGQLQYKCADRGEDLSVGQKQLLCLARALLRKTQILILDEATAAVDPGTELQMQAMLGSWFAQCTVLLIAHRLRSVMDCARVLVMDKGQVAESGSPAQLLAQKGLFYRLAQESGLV

For orientation: EC50 means the concentration at which the effect is half-maximal. For the molecule `Cc1cc(C2CC2)nc(C)c1Oc1nc(-c2ccnc(C#N)c2)ccc1NS(C)(=O)=O` [Compound I-213], the EC50 is under 1 µM. The value for `Cc1cc(C)c(Oc2nc(-c3cncc(C4COC4)c3)ccc2NS(C)(=O)=O)c(C)n1` [Compound I-216] was under 1 µM; that for `Cc1cc(C)c(Oc2nc(-c3cncc(N4CC(F)(F)C4)c3)ccc2NS(C)(=O)=O)c(C)n1` [Compound I-195] was under 1 µM; that for `Cc1nc(C(F)(F)F)nc(C)c1Oc1nc(-c2cncc(Cl)c2)ccc1NS(C)(=O)=O` [Compound I-205] was under 1 µM.

With `Cc1cc(C)c(Oc2nc(-c3cnn(C)c3C)ccc2NS(C)(=O)=O)c(C)c1` [Compound I-13], the EC50 was under 1 µM. On to `Cc1cc(C)c(Oc2nc(-c3cncc(C#N)c3)ccc2NS(C)(=O)=O)c(OC2CC2)n1` [Compound I-176], for which the EC50 was under 1 µM. On to `Cc1nc(N2CC(F)(F)C2)nc(C)c1Oc1nc(-c2cncc(C#N)c2)ccc1NS(C)(=O)=O` [Compound I-170], for which the EC50 is under 1 µM.

For `COc1cc(C)c(Oc2nc(-c3cncc(C#N)c3)ccc2NS(C)(=O)=O)c(C)n1` [Compound I-222], the EC50 is under 1 µM.

With `C#Cc1cncc(-c2ccc(NS(C)(=O)=O)c(Oc3c(C)cc(C)nc3C)n2)c1` [Compound I-212], the half-maximal effective concentration (EC50) was under 1 µM. As to `CNS(=O)(=O)c1ccc(-c2cncc(C#N)c2)nc1Oc1c(C)cc(C(F)(F)F)nc1C` [Compound I-168], the EC50 fell in the range of 1 to 10 µM. For the molecule `Cc1nc(C2COC2)nc(C)c1Oc1nc(-c2cncc(C#N)c2)ccc1NS(C)(=O)=O` [Compound I-174], the EC50 is under 1 µM.

Turning to `Cc1cc(Oc2nc(-c3cncc(C#N)c3)ccc2NS(C)(=O)=O)nn1C` [Compound I-113], the EC50 was 1 to 10 µM. The value for `COC(=O)c1cncc(-c2ccc(NS(C)(=O)=O)c(Oc3cc(C)n(C)n3)n2)c1` [Compound I-206] was 1 to 10 µM; that for `Cc1cc(Oc2nc(-c3cncc(C#N)c3)ccc2NS(C)(=O)=O)c(C)nc1C(F)(F)F` [Compound I-182] was under 1 µM.

With `Cc1cc(C(F)F)nc(C)c1Oc1nc(-c2ccnc(C#N)c2)ccc1NS(=O)(=O)C1CC1` [Compound I-203], the EC50 was under 1 µM.

On to `Cc1cc(C)c(Oc2nc(-n3cnc(C)c3)ccc2NS(C)(=O)=O)c(C)c1` [Compound I-12], for which the EC50 was under 1 µM.

`Cc1cc(C)c(Oc2nc(-c3cc[nH]c(=O)c3)ccc2NS(C)(=O)=O)c(C)n1` [Compound I-187]: the EC50 was at least 25 µM. As to `Cc1cc(C(F)F)nc(C)c1Oc1nc(-c2ccnc(C#N)c2)ccc1NS(C)(=O)=O` [Compound I-204], the EC50 is under 1 µM. The value for `Cc1nc(Oc2nc(-c3cncc(C#N)c3)ccc2NS(C)(=O)=O)c(C)s1` [Compound I-107] was under 1 µM; that for `CNS(=O)(=O)c1ccc(-c2cncc(C#N)c2)nc1Oc1c(C)nc(C(F)(F)F)nc1C` [Compound I-167] was 1 to 10 µM. Turning to `COC1CN(c2cncc(-c3ccc(NS(C)(=O)=O)c(Oc4c(C)cc(C)nc4C)n3)c2)C1` [Compound I-196], the EC50 is under 1 µM.

With `Cc1cc(C)c(Oc2nc(-c3cncc(C#N)c3)ccc2NS(=O)(=O)C2(C)CC2)c(C)n1` [Compound I-172], the EC50 lay within 1 to 10 µM. The figure for `COC(=O)N1CCN(c2ccc(NS(C)(=O)=O)c(Oc3c(C)cc(C)cc3C)n2)CC1` [Compound I-16] is 1 to 10 µM. For the molecule `Cc1nc(C2CC2)c(C(F)(F)F)cc1Oc1nc(-c2cncc(C#N)c2)ccc1NS(C)(=O)=O` [Compound I-184], the EC50 was under 1 µM. As to `CC(=O)N1CCN(c2ccc(NS(C)(=O)=O)c(Oc3c(C)cc(C)cc3C)n2)CC1` [Compound I-17], the concentration for a half-maximal effect (EC50) was in the range of 1 to 10 µM. Take `Cc1cc(C(F)(F)F)nc(C)c1Oc1nc(-c2cncc(C3COC3)c2)ccc1NS(C)(=O)=O` [Compound I-198]: the EC50 was at least 25 µM. For `Cc1nc(C2CC2)nc(C)c1Oc1nc(-c2cncc(C#N)c2)ccc1NS(C)(=O)=O` [Compound I-183], the EC50 is under 1 µM. As to `Cc1nn(C)c(C)c1Oc1nc(-c2cncc(C#N)c2)ccc1NS(C)(=O)=O` [Compound I-115], the EC50 is under 1 µM. Turning to `Cc1nc(C)c(C(F)(F)F)cc1Oc1nc(-c2cncc(C#N)c2)ccc1NS(C)(=O)=O` [Compound I-225], the EC50 is under 1 µM. The figure for `Cc1cc(C)c(Oc2nc(-c3cnn(C)c3)ccc2NS(C)(=O)=O)c(C)c1` [Compound I-14] is 1 to 10 µM; for `Cc1cc(N2CC(F)(F)C2)nc(C)c1Oc1nc(-c2cncc(C#N)c2)ccc1NS(C)(=O)=O` [Compound I-180] it is under 1 µM.

As for `Cc1nc(C)c(Oc2nc(-c3cncc(C#N)c3)ccc2NS(C)(=O)=O)c(C2CC2)n1` [Compound I-165], the EC50 is under 1 µM. Take `Cc1nc(C)c(Oc2nc(-c3cncc(C(F)F)c3)ccc2NS(C)(=O)=O)c(C)n1` [Compound I-191]: the EC50 lay within 1 to 10 µM.

On to `Cc1cc(OC2CC2)nc(C)c1Oc1nc(-c2cncc(C#N)c2)ccc1NS(C)(=O)=O` [Compound I-132], for which the EC50 is under 1 µM.

`Cc1cc(C)c(Oc2nc(-c3cncc(N4CC(F)C4)c3)ccc2NS(C)(=O)=O)c(C)n1` [Compound I-185]: the EC50 is under 1 µM. Regarding `Cc1nc(C2CC2)c(Cl)cc1Oc1nc(-c2cncc(C#N)c2)ccc1NS(C)(=O)=O` [Compound I-120], the EC50 is under 1 µM. With `Cc1cc(C)c(Oc2nc(-c3cncc(Cl)c3)ccc2NS(=O)(=O)C2COC2)c(C)n1` [Compound I-237], the EC50 is under 1 µM.

Turning to `Cc1cc(C)c(Oc2nc(-c3cncc(C#N)c3)ccc2N(C)S(C)(=O)=O)c(C)n1` [Compound I-166], the concentration giving a half-maximal response (EC50) lay within 1 to 10 µM. As to `COc1nc(C)cc(C)c1Oc1nc(-c2cncc(C#N)c2)ccc1NS(C)(=O)=O` [Compound I-209], the EC50 is under 1 µM. With `Cc1cc(C(F)(F)F)nc(C)c1Oc1nc(-c2ccnc(C#N)c2)ccc1NS(C)(=O)=O` [Compound I-219], the EC50 was under 1 µM. `Cc1nc(C(F)(F)F)nc(C)c1Oc1nc(-c2cncc(C#N)c2)ccc1NS(C)(=O)=O` [Compound I-200]: the concentration for a half-maximal effect (EC50) was under 1 µM. On to `Cc1cc(C2CC2)nc(C)c1Oc1nc(-c2cncc(Cl)c2)ccc1NS(=O)(=O)C1COC1` [Compound I-236], for which the EC50 is under 1 µM. For the molecule `Cc1cc(C2CC2)c(Oc2nc(-c3cncc(C#N)c3)ccc2NS(C)(=O)=O)c(C)n1` [Compound I-171], the EC50 was under 1 µM. Take `Cc1nc(OC2CC2)c(C(F)(F)F)cc1Oc1nc(-c2cncc(C#N)c2)ccc1NS(C)(=O)=O` [Compound I-178]: the EC50 was under 1 µM.

`Cc1cc(C(F)F)nc(C)c1Oc1nc(-c2cncc(Cl)c2)ccc1NS(C)(=O)=O` [Compound I-202]: the EC50 is under 1 µM.

`Cc1cc(OC(F)(F)F)nc(C)c1Oc1nc(-c2cncc(C#N)c2)ccc1NS(C)(=O)=O` [Compound I-131]: the EC50 was under 1 µM. `Cc1nc(C)c(Oc2nc(-c3cncc(C4CC4)c3)ccc2NS(C)(=O)=O)c(C)n1` [Compound I-193]: the EC50 is under 1 µM. The figure for `COCc1cncc(-c2ccc(NS(C)(=O)=O)c(Oc3c(C)cc(C)nc3C)n2)c1` [Compound I-231] is under 1 µM; for `Cc1cc(C)c(Oc2nc(-c3cncc(CO)c3)ccc2NS(C)(=O)=O)c(C)n1` [Compound I-227] it is under 1 µM; for `Cc1nc(C(F)F)nc(C)c1Oc1nc(-c2cncc(Cl)c2)ccc1NS(C)(=O)=O` [Compound I-175] it is under 1 µM. On to `Cc1cc(C)c(Oc2nc(-c3cncc(N4CCOCC4)c3)ccc2NS(C)(=O)=O)c(C)n1` [Compound I-201], for which the EC50 lay within 1 to 10 µM. Consider `CCS(=O)(=O)Nc1ccc(-c2cncc(C#N)c2)nc1Oc1c(C)cc(C(F)(F)F)nc1C` [Compound I-217], for which the EC50 is under 1 µM. The value for `Cc1cc(Oc2nc(-c3cncc(C#N)c3)ccc2NS(C)(=O)=O)c(C)nc1C` [Compound I-226] was under 1 µM; that for `Cc1cc(C2CCC2)nc(C)c1Oc1nc(-c2cncc(C#N)c2)ccc1NS(C)(=O)=O` [Compound I-208] was under 1 µM. The figure for `Cc1cc(C(F)F)nc(C)c1Oc1nc(-c2cncc(C#N)c2)ccc1NS(=O)(=O)C1CC1` [Compound I-199] is 1 to 10 µM; for `Cc1nc(N2CC(S(C)(=O)=O)C2)nc(C)c1Oc1nc(-c2cncc(C#N)c2)ccc1NS(C)(=O)=O` [Compound I-169] it is 1 to 10 µM; for `Cc1cc(C)c(Oc2nc(-c3ccn(C)c(=O)c3)ccc2NS(C)(=O)=O)c(C)n1` [Compound I-186] it is under 25 µM. The value for `Cc1nc(C(F)F)nc(C)c1Oc1nc(-c2cncc(C#N)c2)ccc1NS(C)(=O)=O` [Compound I-173] was under 1 µM. For `Cc1cc(C)c(Oc2nc(-c3cncc(C#N)c3)ccc2N2CCCS2(=O)=O)c(C)n1` [Compound I-221], the EC50 was 1 to 10 µM.

Regarding `Cc1nc(C2CCC2)nc(C)c1Oc1nc(-c2cncc(C#N)c2)ccc1NS(C)(=O)=O` [Compound I-181], the EC50 is under 1 µM.

In the case of `Cc1cc(C(F)F)nc(C)c1Oc1nc(-c2cncc(C#N)c2)ccc1NS(C)(=O)=O` [Compound I-230], the EC50 is under 1 µM.

Regarding `Cc1cc(Oc2nc(-c3cncc(C#N)c3)ccc2NS(C)(=O)=O)c(C)nc1C1CC1` [Compound I-127], the EC50 is under 1 µM. As for `Cc1nc(C)c(C2CC2)cc1Oc1nc(-c2cncc(C#N)c2)ccc1NS(C)(=O)=O` [Compound I-229], the EC50 was in the range of 1 to 10 µM.

In the case of `Cc1cc(C)c(Oc2nc(-c3cncc(C4CN(C)C4)c3)ccc2NS(C)(=O)=O)c(C)n1` [Compound I-194], the EC50 was at least 25 µM. In the case of `Cc1cc(C)c(Oc2nc(-c3cncc(C(C)(C)O)c3)ccc2NS(C)(=O)=O)c(C)n1` [Compound I-220], the EC50 was at least 25 µM. Consider `COc1cc(-c2ccc(NS(C)(=O)=O)c(Oc3c(C)cc(C)nc3C)n2)ccn1` [Compound I-188], for which the EC50 was under 1 µM. Take `Cc1cc(C)c(Oc2nc(-c3cncc(C4CC4)c3)ccc2NS(C)(=O)=O)c(C)n1` [Compound I-232]: the EC50 was under 1 µM.
